# ChEMBL document CHEMBL1201862, “PubChem BioAssay data set” (2004)
#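 Compound exposure: 48 hours, 5 concentrations, 96-well plates. GI50 = concentration required for 50% inhibition of growth.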 Activity calls are given as the source filed them. Cut-off read from the data, not from the text of the source: active = GI50 up to about 1.1 µM and inactive = higher.
# Columns and labels:
# Assay in all cases: growth of human tumour cells (NCI), 48 h
# M14 = tested on: M14
# HOP-92 = tested on: HOP-92
# HCT-15 = tested on: HCT-15
# U-251 = tested on: U-251
# ACHN = tested on: ACHN
# MOLT-4 = tested on: MOLT-4
# UACC-62 = tested on: UACC-62
# HCT-116 = tested on: HCT-116
# OVCAR-5 = tested on: OVCAR-5
# SK-MEL-5 = tested on: SK-MEL-5
# A549 = tested on: A549
# UACC-257 = tested on: UACC-257
# LOX IMVI = tested on: LOX IMVI
# COLO 205 = tested on: COLO 205
# NCI-H226 = tested on: NCI-H226
# CAKI-1 = tested on: CAKI-1
# HT-29 = tested on: HT-29
# RXF 393 = tested on: RXF 393
# PC-3 = tested on: PC-3
SMILES,GI50 (M14),GI50 (HOP-92),GI50 (HCT-15) [µM],GI50 (U-251),GI50 (ACHN),GI50 (MOLT-4),GI50 (UACC-62),GI50 (HCT-116),GI50 (OVCAR-5),GI50 (SK-MEL-5),GI50 (A549),GI50 (UACC-257),GI50 (LOX IMVI),GI50 (COLO 205),GI50 (NCI-H226),GI50 (CAKI-1),GI50 (HT-29),GI50 (RXF 393),GI50 (PC-3)
O=C(Cc1ccccc1)N/N=C(/c1nc2ccc([N+](=O)[O-])cc2nc1O)C(O)c1ccccc1Cl (stereo not given),60.8 µM (inactive),> 100 µM (inactive),40.6,> 100 µM (inactive),56.6 µM (inactive),70 µM (inactive),> 100 µM (inactive),> 100 µM (inactive),> 100 µM (inactive),41.4 µM (inactive),80.2 µM (inactive),> 100 µM (inactive),> 100 µM (inactive),> 100 µM (inactive),> 100 µM (inactive),46.6 µM (inactive),> 100 µM (inactive),–,–
CCOC(=O)CCC1(C(=O)OCC)CCCCC1=O (stereo not given),–,> 100 µM (inactive),–,> 100 µM (inactive),> 100 µM (inactive),> 100 µM (inactive),–,> 100 µM (inactive),> 100 µM (inactive),> 100 µM (inactive),> 100 µM (inactive),> 100 µM (inactive),> 100 µM (inactive),> 100 µM (inactive),–,–,> 100 µM (inactive),> 100 µM (inactive),–
CCOC(=O)Cc1cc(OC)c(OC)cc1/C(Cl)=C(\CO)c1ccc(OC)c(OC)c1,> 100 µM (inactive),25.2 µM (inactive),> 100,64 µM (inactive),81.1 µM (inactive),> 100 µM (inactive),> 100 µM (inactive),> 100 µM (inactive),–,30.7 µM (inactive),> 100 µM (inactive),> 100 µM (inactive),87.9 µM (inactive),> 100 µM (inactive),–,> 100 µM (inactive),> 100 µM (inactive),37.9 µM (inactive),–
NC(=O)OCC(COc1ccc(Cl)cc1)OC(=O)c1cc([N+](=O)[O-])cc([N+](=O)[O-])c1 (stereo not given),> 100 µM (inactive),> 100 µM (inactive),33.5,> 100 µM (inactive),> 100 µM (inactive),> 100 µM (inactive),> 100 µM (inactive),35.8 µM (inactive),> 100 µM (inactive),> 100 µM (inactive),> 100 µM (inactive),> 100 µM (inactive),17.9 µM (inactive),39 µM (inactive),> 100 µM (inactive),> 100 µM (inactive),> 100 µM (inactive),> 100 µM (inactive),–
O=C(Nc1ccc(Cl)c(Cl)c1)C(=O)C(C(=O)c1ccccc1F)C1OC(=O)c2ccccc21 (stereo not given),16.4 µM (inactive),51.6 µM (inactive),13.7,12.7 µM (inactive),31.9 µM (inactive),29.6 µM (inactive),14.8 µM (inactive),16.8 µM (inactive),49.1 µM (inactive),15.9 µM (inactive),27.8 µM (inactive),40.8 µM (inactive),18.4 µM (inactive),16.1 µM (inactive),17.9 µM (inactive),35.2 µM (inactive),34.4 µM (inactive),20.7 µM (inactive),–
CC1CC(c2ccccc2)=Nc2ccccc2S1 (stereo not given),> 100 µM (inactive),> 100 µM (inactive),> 100,44.1 µM (inactive),> 100 µM (inactive),77.8 µM (inactive),> 100 µM (inactive),> 100 µM (inactive),> 100 µM (inactive),> 100 µM (inactive),> 100 µM (inactive),> 100 µM (inactive),84.7 µM (inactive),> 100 µM (inactive),> 100 µM (inactive),> 100 µM (inactive),> 100 µM (inactive),> 100 µM (inactive),–
COc1ccc2c(c1)OC(c1ccccc1O)CC2=O (stereo not given),39.9 µM (inactive),–,27.2,44.5 µM (inactive),46.2 µM (inactive),26.1 µM (inactive),–,29.5 µM (inactive),> 100 µM (inactive),40 µM (inactive),40.6 µM (inactive),39.5 µM (inactive),–,–,–,51.5 µM (inactive),74.6 µM (inactive),–,–
O=c1cc(O)c1=O,> 100 µM (inactive),> 100 µM (inactive),> 100,> 100 µM (inactive),> 100 µM (inactive),> 100 µM (inactive),> 100 µM (inactive),> 100 µM (inactive),> 100 µM (inactive),> 100 µM (inactive),> 100 µM (inactive),> 100 µM (inactive),> 100 µM (inactive),> 100 µM (inactive),> 100 µM (inactive),> 100 µM (inactive),> 100 µM (inactive),–,> 100 µM (inactive)
COc1cc(C(C)c2cc3c(cc2OCCOCCOc2cc4c(cc2C(C)c2cc(OC)c(OC)c(OC)c2)OCO4)OCO3)cc(OC)c1OC (stereo not given),> 10 µM (inactive),16.4 µM (inactive),> 10,> 10 µM (inactive),> 10 µM (inactive),> 10 µM (inactive),> 10 µM (inactive),> 10 µM (inactive),> 10 µM (inactive),89.1 µM (inactive),> 10 µM (inactive),> 10 µM (inactive),> 10 µM (inactive),> 10 µM (inactive),> 10 µM (inactive),> 10 µM (inactive),> 10 µM (inactive),> 10 µM (inactive),–
COC1=CC(=O)[C@@]2(C)C(C)[C@H](c3ccccc3)[C@H]2C1=O (stereo not given in full),> 100 µM (inactive),> 100 µM (inactive),> 100,> 100 µM (inactive),> 100 µM (inactive),> 100 µM (inactive),> 100 µM (inactive),–,> 100 µM (inactive),> 100 µM (inactive),> 100 µM (inactive),> 100 µM (inactive),> 100 µM (inactive),> 100 µM (inactive),> 100 µM (inactive),> 100 µM (inactive),> 100 µM (inactive),> 100 µM (inactive),–
S=C=NCCc1ccccc1 [PHENETHYLISOTHIOCYANATE],0.46 µM (active),–,0.228,0.794 µM (active),1.56 µM (inactive),0.53 µM (active),0.839 µM (active),0.453 µM (active),1.55 µM (inactive),0.325 µM (active),2.39 µM (inactive),0.885 µM (active),0.194 µM (active),0.762 µM (active),1.49 µM (inactive),–,0.219 µM (active),0.443 µM (active),–
ON(Cc1ccccc1)C(=S)c1ccccc1,5.21 µM (inactive),50.7 µM (inactive),2.6,3.64 µM (inactive),4.21 µM (inactive),1.09 µM (active),2.43 µM (inactive),3.4 µM (inactive),17.9 µM (inactive),4.47 µM (inactive),4.35 µM (inactive),4.72 µM (inactive),2.24 µM (inactive),1.45 µM (inactive),20.1 µM (inactive),–,2.88 µM (inactive),8.97 µM (inactive),3.03 µM (inactive)
COc1ccc(NC(=O)C(=O)NNC(=O)c2sc(NNC(C)=O)nc2C)c([N+](=O)[O-])c1,> 100 µM (inactive),> 100 µM (inactive),91.6,> 100 µM (inactive),45.5 µM (inactive),36 µM (inactive),82.6 µM (inactive),> 100 µM (inactive),> 100 µM (inactive),> 100 µM (inactive),> 100 µM (inactive),81.7 µM (inactive),40.6 µM (inactive),> 100 µM (inactive),> 100 µM (inactive),–,> 100 µM (inactive),–,–
C=CCNC(=O)N(CCC)CCCC(NC(C)=O)C(=O)NCc1ccccc1 (stereo not given),> 100 µM (inactive),> 100 µM (inactive),> 100,> 100 µM (inactive),> 100 µM (inactive),> 100 µM (inactive),> 100 µM (inactive),–,> 100 µM (inactive),> 100 µM (inactive),> 100 µM (inactive),> 100 µM (inactive),> 100 µM (inactive),> 100 µM (inactive),79.1 µM (inactive),> 100 µM (inactive),> 100 µM (inactive),> 100 µM (inactive),–
Cc1cc(C)nc(NS(=O)(=O)c2ccc(NC(=O)c3cccc4c(Nc5ccc(S(=O)(=O)Nc6cc(C)on6)cc5)c5ccccc5nc34)cc2)n1,22.7 µM (inactive),–,–,18.4 µM (inactive),38.6 µM (inactive),25.4 µM (inactive),20.3 µM (inactive),25.9 µM (inactive),16.7 µM (inactive),–,–,22.2 µM (inactive),18.9 µM (inactive),–,–,–,22.2 µM (inactive),20.1 µM (inactive),–
CCN(CC)CCO[Si](OCCN(CC)CC)(OCCN(CC)CC)OCCN(CC)CC,> 100 µM (inactive),–,> 100,> 100 µM (inactive),–,–,> 100 µM (inactive),> 10 µM (inactive),> 100 µM (inactive),> 100 µM (inactive),> 100 µM (inactive),> 100 µM (inactive),> 100 µM (inactive),> 100 µM (inactive),88.5 µM (inactive),> 100 µM (inactive),> 100 µM (inactive),> 100 µM (inactive),–
CC1(Br)S(=O)(=O)OCCOS1(=O)=O,> 100 µM (inactive),> 100 µM (inactive),> 100,> 100 µM (inactive),> 100 µM (inactive),> 100 µM (inactive),> 100 µM (inactive),> 100 µM (inactive),> 100 µM (inactive),> 100 µM (inactive),> 100 µM (inactive),> 100 µM (inactive),> 100 µM (inactive),> 100 µM (inactive),> 100 µM (inactive),–,> 100 µM (inactive),> 100 µM (inactive),–
